Results: US9464058B2 (Hoffmann-La Roche Inc., priority 2012, dated 2016)

Legend:
human CYP11B2 = molecular target: T1, human CYP11B2 (Homo sapiens, UniProt P19099); test: G-402 cellular enzyme assay, human CYP11B2 (aldosterone release, HTRF); format: cell-based; details: G-402 cells expressing human CYP11B2; 1 μM Deoxycorticosterone; 16 h
T1 construct: expressed in transfected cells
T1 sequence (P19099 25-503): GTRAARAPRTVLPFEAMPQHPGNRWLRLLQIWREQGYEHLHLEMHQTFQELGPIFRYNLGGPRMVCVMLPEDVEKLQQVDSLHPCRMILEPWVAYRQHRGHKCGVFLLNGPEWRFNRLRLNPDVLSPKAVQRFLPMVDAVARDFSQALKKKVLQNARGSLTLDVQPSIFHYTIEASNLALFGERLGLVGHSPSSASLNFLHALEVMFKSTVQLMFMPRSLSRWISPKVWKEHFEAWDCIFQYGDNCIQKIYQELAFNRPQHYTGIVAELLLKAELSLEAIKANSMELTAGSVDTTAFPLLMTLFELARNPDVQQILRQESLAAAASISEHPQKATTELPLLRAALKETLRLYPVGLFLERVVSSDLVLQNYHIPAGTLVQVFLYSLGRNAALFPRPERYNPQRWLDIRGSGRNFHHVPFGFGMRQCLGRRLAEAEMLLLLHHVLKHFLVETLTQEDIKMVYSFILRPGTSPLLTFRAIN
Source text: (§1) Herein we identified the use of the G-402 cell line as a host cell to ectopically express (transiently or stably) enzymes of the CYP11 family. Specifically we developed stable G-402 cells expressing ectopically human CYP11B1, human CYP11B2, human CYP11A1, cynomolgus CYP11B1 or cynomolgus CYP11B2 enzyme activity. Importantly, the identified cell line G-402 expresses co-factors (adrenodoxin and adrenodoxin reductase) important for the activity of the CYP11 family, and no relevant enzyme activity of the CYP11 family (in comparison to H295R cells) was detected in these cells. Therefore the G-402 cell line is uniquely suited as a host cell for the ectopic expression of enzymes from the CYP11 family.
(§2) G-402 cells can be obtained from ATCC(CRL-1440) and were originally derived from a renal leiomyoblastoma.
(§3) The expression plasmids contains the ORF for either human/cyno CYP11B1 or CYP11B2 under the control of a suitable promoter (CMV-promoter) and a suitable resistance marker (neomycin). Using standard techniques the expression plasmid is transfected into G-402 cells and these cells are then selected for expressing the given resistance markers. Individual cell-clones are then selected and assessed for displaying the desired enzymatic activity using 11-Deoxycorticosterone (Cyp11B2) or 11-Deoxycortisol (Cyp11B1) as a substrate.
(§4) G-402 cells expressing CYP11 constructs were established as described above and maintained in McCoy's 5a Medium Modified, ATCC Catalog No. 30-2007 containing 10% FCS and 400 μg/ml G418 (Geneticin) at 37° C. under an atmosphere of 5% CO2/95% air. Cellular enzyme assays were performed in DMEM/F12 medium containing 2.5% charcoal treated FCS and appropriate concentration of substrate (0.3-10 uM 11-Deoxycorticosterone, 11-Deoxycortisol or Corticosterone). For assaying enzymatic activity, cells were plated onto 96 well plates and incubated for 16 h. An aliquot of the supernatant is then transferred and analyzed for the concentration of the expected product (Aldosterone for CYP11B2; Cortisol for CYP11B1). The concentrations of these steroids can be determined using HTRF assays from CisBio analyzing either Aldosterone or Cortisol.
(§5) Inhibition of the release of produced steroids can be used as a measure of the respective enzyme inhibition by test compounds added during the cellular enzyme assay. The dose dependent inhibition of enzymatic activity by a compound is calculated by means of plotting added inhibitor concentrations (x-axes) vs. measured steroid/product level (y-axes). The inhibition is then calculated by fitting the following 4-parameter sigmoidal function (Morgan-Mercer-Flodin (MMF) model) to the raw data points using the least squares method:
(§6) [formula] wherein A is the maximum y value, B is the EC50 factor determined using XLFit, C is the minimum y value and D is the slope value.
(§7) EC50 values for compounds claimed herein were tested with the G402-based assay system described. Cyp11B2 enzyme activity was tested in presence of 1 μM Deoxycorticosterone and variable amounts of inhibitors; Cyp11B1 enzyme activity was tested in presence of 1 μM Deoxycortisol and variable amounts of inhibitors.

human CYP11B1 = molecular target: T2, human CYP11B1 (Homo sapiens, UniProt P15538); test: G-402 cellular enzyme assay, human CYP11B1 (cortisol release, HTRF); format: cell-based; details: G-402 cells expressing human CYP11B1; 1 μM Deoxycortisol; 16 h
T2 construct: expressed in transfected cells
T2 sequence (P15538 25-503): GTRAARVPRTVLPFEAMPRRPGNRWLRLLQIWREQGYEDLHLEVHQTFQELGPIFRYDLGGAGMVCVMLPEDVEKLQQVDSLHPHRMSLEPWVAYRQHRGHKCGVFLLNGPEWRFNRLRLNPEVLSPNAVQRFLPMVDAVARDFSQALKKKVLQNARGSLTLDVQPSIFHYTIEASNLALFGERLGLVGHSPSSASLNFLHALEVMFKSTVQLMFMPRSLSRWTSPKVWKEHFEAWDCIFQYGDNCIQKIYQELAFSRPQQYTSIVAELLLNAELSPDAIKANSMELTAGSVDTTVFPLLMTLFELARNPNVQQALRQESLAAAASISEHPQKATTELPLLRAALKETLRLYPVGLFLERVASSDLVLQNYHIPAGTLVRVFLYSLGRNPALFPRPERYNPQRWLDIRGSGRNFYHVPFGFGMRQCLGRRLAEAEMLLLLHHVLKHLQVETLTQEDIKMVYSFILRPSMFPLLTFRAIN
Source text: as §1, §2, §3, §4, §5, §6, §7

EC50 (human CYP11B2) [nM] | EC50 (human CYP11B1) [nM] | Compound
15.9 | 199 | COc1cc(C(=O)c2cncn2C(C)C)ccc1SC(F)(F)F [Example 81, (3-Isopropyl-3H-imidazol-4-yl)-(3-methoxy-4-trifluoromethylsulfanyl-phenyl)-methanone]
197 | 7840 | Cn1cncc1C(=O)c1ccc(C(F)(F)F)cc1 [Example 31, (3-Methyl-3H-imidazol-4-yl)-(4-trifluoromethyl-phenyl)-methanone]
3670 | 1690 | CCn1cncc1C(=O)c1ccc(C(C)(C)C)cc1 [Example 35, (4-tert-Butyl-phenyl)-(3-ethyl-3H-imidazol-4-yl)-methanone]
323 | 448 | CC(C)n1cncc1C(=O)c1ccc(F)c(C#N)c1 [Example 64, 2-Fluoro-5-(3-isopropyl-3H-imidazole-4-carbonyl)-benzonitrile]
87.2 | 890 | N#Cc1cccc(C(=O)c2cncn2C2CC2)c1 [Example 58, 3-(3-Cyclopropyl-3H-imidazole-4-carbonyl)-benzonitrile]
11.6 | 368 | Cn1cncc1C(=O)c1ccc(C#N)cc1 [Example 2, 4-(3-Methyl-3H-imidazole-4-carbonyl)-benzonitrile]
3.2 | 132 | O=C(c1ccc(Cl)c(F)c1)c1cncn1-c1ccc(Cl)cc1 [Example 92, (4-Chloro-3-fluoro-phenyl)-[3-(4-chloro-phenyl)-3H-imidazol-4-yl]-methanone]
5.7 | 57 | CCC(CC)n1cncc1C(=O)c1cccc(C#N)c1 [Example 83, 3-[3-(1-Ethyl-propyl)-3H-imidazole-4-carbonyl]-benzonitrile]
29.4 | 744 | CCn1cncc1C(=O)c1ccc(N(C)C=O)cc1 [Example 89, N-[4-(3-Ethyl-3H-imidazole-4-carbonyl)-phenyl]-N-methyl-formamide]
583 | 8710 | Cn1cncc1C(=O)c1cccc(C#N)c1 [Example 21, 3-(3-Methyl-3H-imidazole-4-carbonyl)-benzonitrile]
32.6 | 543 | Cn1cncc1C(=O)c1cccc(Cl)c1 [Example 22, (3-Chloro-phenyl)-(3-methyl-3H-imidazol-4-yl)-methanone]
0.7 | 3.3 | CC(C)n1cncc1C(=O)c1ccc(Cl)c(F)c1 [Example 39, (4-Chloro-3-fluoro-phenyl)-(3-isopropyl-3H-imidazol-4-yl)-methanone]
2.6 | 46.8 | CCn1cncc1C(=O)c1ccc(C#N)cc1 [Example 5, 4-(3-Ethyl-3H-imidazole-4-carbonyl)-benzonitrile]
2.3 | 25.4 | CCn1cncc1C(=O)c1ccc(C#N)c(Cl)c1 [Example 46, 2-Chloro-4-(3-ethyl-3H-imidazole-4-carbonyl)-benzonitrile]
1.3 | 5.3 | CC(C)n1cncc1C(=O)c1cccc(Cl)c1 [Example 12, (3-Chloro-phenyl)-(3-isopropyl-3H-imidazol-4-yl)-methanone]
1620 | 3750 | CNc1ccc(C(=O)c2cncn2C)cc1 [Example 86, (4-Methylamino-phenyl)-(3-methyl-3H-imidazol-4-yl)-methanone]
3.7 | 145 | N#Cc1ccc(-n2cncc2C(=O)c2ccc(Cl)c(Cl)c2)cc1Cl [Example 78, 2-Chloro-4-[5-(3,4-dichloro-benzoyl)-imidazol-1-yl]-benzonitrile]
77 | 7880 | CN1C(=O)CCc2cc(C(=O)c3cncn3C)ccc21 [Example 25, 1-Methyl-6-(3-methyl-3H-imidazole-4-carbonyl)-3,4-dihydro-1H-quinolin-2-one]
6.9 | 153 | CC(C)n1cncc1C(=O)c1ccc2c(c1)CCC(=O)N2C [Example 27, 6-(3-Isopropyl-3H-imidazole-4-carbonyl)-1-methyl-3,4-dihydro-1H-quinolin-2-one]
